Experimental data published in patent US11718604B2, “4-amino-6-(1,3-benzodioxole)picolinates and their use as herbicides” (Dow AgroSciences LLC, priority 2018, dated 2023).

Tests used:
Format in all cases: in vivo
[1] = system: CIRAR: Canada thistle (Cirsium arvense); experiment: Post-emergent herbicidal test, Canada thistle; settings: post-emergence, 336 h, 14 days after application, read-out: Visual Growth Reduction (%) 14 Days After Application CIRAR; for pest or weed control at 17.5 g/ha: 17.5 g ai/ha; for pest or weed control at 35 g/ha: 35 g ai/ha; for pest or weed control at 70 g/ha: 70 g ai/ha; for pest or weed control at 140 g/ha: 140 g ai/ha
Outline: (§1)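 Visual injury rating, 0 (none) to 100% (complete kill), made 14 d after treatment relative to untreated plants. Foliar track-sprayer application at 187 L/ha to plants at the 1st-2nd true leaf stage; rates were twofold serial dilutions from the highest rate down to 1/16×.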

[2] = system: EPHHL: wild poinsettia (Euphorbia heterophylla); experiment: Post-emergent herbicidal test, wild poinsettia; settings: post-emergence, 336 h, 14 days after application, read-out: Visual Growth Reduction (%) 14 Days After Application EPHHL; for pest or weed control at 17.5 g/ha: 17.5 g ai/ha; for pest or weed control at 35 g/ha: 35 g ai/ha; for pest or weed control at 70 g/ha: 70 g ai/ha; for pest or weed control at 140 g/ha: 140 g ai/ha
Outline: as §1

[3] = system: CYPES: yellow nutsedge (Cyperus esculentus); experiment: Post-emergent herbicidal test, yellow nutsedge; settings: post-emergence, 336 h, 14 days after application, read-out: Visual Growth Reduction (%) 14 Days After Application CYPES; for pest or weed control at 17.5 g/ha: 17.5 g ai/ha; for pest or weed control at 35 g/ha: 35 g ai/ha; for pest or weed control at 70 g/ha: 70 g ai/ha; for pest or weed control at 140 g/ha: 140 g ai/ha
Outline: as §1

[4] = system: DIGSA: large crabgrass (Digitaria sanguinalis); experiment: Post-emergent herbicidal test, large crabgrass; settings: post-emergence, 336 h, 14 days after application, read-out: Visual Growth Reduction (%) 14 Days After Application DIGSA; for pest or weed control at 17.5 g/ha: 17.5 g ai/ha; for pest or weed control at 35 g/ha: 35 g ai/ha; for pest or weed control at 70 g/ha: 70 g ai/ha; for pest or weed control at 140 g/ha: 140 g ai/ha
Outline: as §1

[5] = system: ECHCG: barnyardgrass (Echinochloa crus-galli); experiment: Post-emergent herbicidal test, barnyardgrass; settings: post-emergence, 336 h, 14 days after application, read-out: Visual Growth Reduction (%) 14 Days After Application ECHCG; for pest or weed control at 17.5 g/ha: 17.5 g ai/ha; for pest or weed control at 35 g/ha: 35 g ai/ha; for pest or weed control at 70 g/ha: 70 g ai/ha; for pest or weed control at 140 g/ha: 140 g ai/ha
Outline: as §1

[6] = system: VIOTR: wild violet (Viola tricolor); experiment: Post-emergent herbicidal test, wild violet; settings: post-emergence, 336 h, 14 days after application, read-out: Visual Growth Reduction (%) 14 Days After Application VIOTR; for pest or weed control at 17.5 g/ha: 17.5 g ai/ha; for pest or weed control at 35 g/ha: 35 g ai/ha; for pest or weed control at 70 g/ha: 70 g ai/ha; for pest or weed control at 140 g/ha: 140 g ai/ha
Outline: as §1

[7] = system: SORVU: shattercane (Sorghum bicolor); experiment: Post-emergent herbicidal test, shattercane; settings: post-emergence, 336 h, 14 days after application, read-out: Visual Growth Reduction (%) 14 Days After Application SORVU; for pest or weed control at 17.5 g/ha: 17.5 g ai/ha; for pest or weed control at 35 g/ha: 35 g ai/ha; for pest or weed control at 70 g/ha: 70 g ai/ha; for pest or weed control at 140 g/ha: 140 g ai/ha
Outline: as §1

[8] = system: BRSNN: oilseed rape, canola (Brassica napus); experiment: Post-emergent herbicidal test, oilseed rape; settings: post-emergence, 336 h, 14 days after application, read-out: Visual Growth Reduction (%) 14 Days After Application BRSNN; for pest or weed control at 17.5 g/ha: 17.5 g ai/ha; for pest or weed control at 35 g/ha: 35 g ai/ha; for pest or weed control at 70 g/ha: 70 g ai/ha; for pest or weed control at 140 g/ha: 140 g ai/ha
Outline: as §1

[9] = system: SETFA: giant foxtail (Setaria faberi); experiment: Post-emergent herbicidal test, giant foxtail; settings: post-emergence, 336 h, 14 days after application, read-out: Visual Growth Reduction (%) 14 Days After Application SETFA; for pest or weed control at 17.5 g/ha: 17.5 g ai/ha; for pest or weed control at 35 g/ha: 35 g ai/ha; for pest or weed control at 70 g/ha: 70 g ai/ha; for pest or weed control at 140 g/ha: 140 g ai/ha
Outline: as §1

[10] = system: ABUTH: velvetleaf (Abutilon theophrasti); experiment: Post-emergent herbicidal test, velvetleaf; settings: post-emergence, 336 h, 14 days after application, read-out: Visual Growth Reduction (%) 14 Days After Application ABUTH; for pest or weed control at 17.5 g/ha: 17.5 g ai/ha; for pest or weed control at 35 g/ha: 35 g ai/ha; for pest or weed control at 70 g/ha: 70 g ai/ha; for pest or weed control at 140 g/ha: 140 g ai/ha
Outline: as §1

[11] = system: IPOHE: ivyleaf morningglory (Ipomoea hederacea); experiment: Post-emergent herbicidal test, ivyleaf morningglory; settings: post-emergence, 336 h, 14 days after application, read-out: Visual Growth Reduction (%) 14 Days After Application IPOHE; for pest or weed control at 17.5 g/ha: 17.5 g ai/ha; for pest or weed control at 35 g/ha: 35 g ai/ha; for pest or weed control at 70 g/ha: 70 g ai/ha; for pest or weed control at 140 g/ha: 140 g ai/ha
Outline: as §1

For COC(=O)c1nc(-c2cccc3c2OC(F)(F)O3)c(F)c(N)c1Cl [Compound 4], the pest or weed control at 17.5 g/ha [1] was 80%, the pest or weed control at 35 g/ha [1] was 90% and the pest or weed control at 70 g/ha [1] was 95%. For the same compound, the pest or weed control at 140 g/ha [1] was 90%, the pest or weed control at 17.5 g/ha [2] was 0% and the pest or weed control at 35 g/ha [2] was 0%. The pest or weed control at 70 g/ha [2] was 0%, the pest or weed control at 140 g/ha [2] was 0% and the pest or weed control at 17.5 g/ha [3] was 0%. The pest or weed control at 35 g/ha [3] was 20%, the pest or weed control at 70 g/ha [3] was 50% and the pest or weed control at 140 g/ha [3] was 50%. The pest or weed control at 17.5 g/ha [4] was 0%, the pest or weed control at 35 g/ha [4] was 0% and the pest or weed control at 70 g/ha [4] was 0%. It also gave a pest or weed control at 140 g/ha [4] of 0%, a pest or weed control at 17.5 g/ha [5] of 0% and a pest or weed control at 35 g/ha [5] of 0%. It also gave a pest or weed control at 70 g/ha [5] of 0%, a pest or weed control at 140 g/ha [5] of 0% and a pest or weed control at 17.5 g/ha [6] of 0%. For the same compound, the pest or weed control at 35 g/ha [6] was 0%, the pest or weed control at 70 g/ha [6] was 20% and the pest or weed control at 140 g/ha [6] was 35%. It also gave a pest or weed control at 17.5 g/ha [7] of 0%, a pest or weed control at 35 g/ha [7] of 0% and a pest or weed control at 70 g/ha [7] of 0%. The pest or weed control at 140 g/ha [7] was 0%, the pest or weed control at 17.5 g/ha [8] was 85% and the pest or weed control at 35 g/ha [8] was 90%. It also gave a pest or weed control at 70 g/ha [8] of 95%, a pest or weed control at 140 g/ha [8] of 95% and a pest or weed control at 17.5 g/ha [9] of 0%. The pest or weed control at 35 g/ha [9] was 0%, the pest or weed control at 70 g/ha [9] was 0% and the pest or weed control at 140 g/ha [9] was 0%. For the same compound, the pest or weed control at 17.5 g/ha [10] was 70%, the pest or weed control at 35 g/ha [10] was 80% and the pest or weed control at 70 g/ha [10] was 80%. The pest or weed control at 140 g/ha [10] was 85%, the pest or weed control at 17.5 g/ha [11] was 0% and the pest or weed control at 35 g/ha [11] was 10%. The pest or weed control at 70 g/ha [11] was 10% and the pest or weed control at 140 g/ha [11] was 30%.
In the case of Nc1c(F)c(-c2ccc(Cl)c3c2OCO3)nc(C(=O)O)c1Cl [Compound 1, 4-amino-3-chloro-6-(7-chlorobenzo[d][1,3]dioxol-4-yl)-5-fluoropicolinic acid], the pest or weed control at 17.5 g/ha [1] is reported as 85%, the pest or weed control at 35 g/ha [1] is reported as 85% and the pest or weed control at 70 g/ha [1] is reported as 95%. It also gave a pest or weed control at 140 g/ha [1] of 90%, a pest or weed control at 17.5 g/ha [2] of 0% and a pest or weed control at 35 g/ha [2] of 0%. For the same compound, the pest or weed control at 70 g/ha [2] was 5%, the pest or weed control at 140 g/ha [2] was 15% and the pest or weed control at 17.5 g/ha [3] was 35%. The pest or weed control at 35 g/ha [3] was 40%, the pest or weed control at 70 g/ha [3] was 80% and the pest or weed control at 140 g/ha [3] was 90%. The pest or weed control at 17.5 g/ha [4] was 0%, the pest or weed control at 35 g/ha [4] was 20% and the pest or weed control at 70 g/ha [4] was 30%. It also gave a pest or weed control at 140 g/ha [4] of 50%, a pest or weed control at 17.5 g/ha [5] of 0% and a pest or weed control at 35 g/ha [5] of 0%. For the same compound, the pest or weed control at 70 g/ha [5] was 30%, the pest or weed control at 140 g/ha [5] was 40% and the pest or weed control at 17.5 g/ha [6] was 40%. For the same compound, the pest or weed control at 35 g/ha [6] was 60%, the pest or weed control at 70 g/ha [6] was 70% and the pest or weed control at 140 g/ha [6] was 95%. For the same compound, the pest or weed control at 17.5 g/ha [7] was 35%, the pest or weed control at 35 g/ha [7] was 35% and the pest or weed control at 70 g/ha [7] was 50%. It also gave a pest or weed control at 140 g/ha [7] of 60%, a pest or weed control at 17.5 g/ha [8] of 55% and a pest or weed control at 35 g/ha [8] of 100%. It also gave a pest or weed control at 70 g/ha [8] of 100%, a pest or weed control at 140 g/ha [8] of 100% and a pest or weed control at 17.5 g/ha [9] of 10%. The pest or weed control at 35 g/ha [9] was 10%, the pest or weed control at 70 g/ha [9] was 35% and the pest or weed control at 140 g/ha [9] was 50%. For the same compound, the pest or weed control at 17.5 g/ha [10] was 80%, the pest or weed control at 35 g/ha [10] was 85% and the pest or weed control at 70 g/ha [10] was 90%. It also gave a pest or weed control at 140 g/ha [10] of 95%, a pest or weed control at 17.5 g/ha [11] of 0% and a pest or weed control at 35 g/ha [11] of 0%. The pest or weed control at 70 g/ha [11] was 10% and the pest or weed control at 140 g/ha [11] was 15%.
